Laboratory results: patent publication US20030170704A1, “Substance capable of controlling the inclusion of exon 10 of the tau gene, and its therapeutic use against tauopathies” (Max-Planck-Gesellschaft Zur Foerd Der Wissen. E.V., priority 1999, published 2003)

Columns and labels:
[1] = tested on: clk2 phosphorylation / exon 10 inclusion of the tau gene; assay: Changing clk2 phosphorylation levels by kinase/phosphatase inhibitors; type: cell-based
[2] = tested on: tau exon 10 inclusion (SV10 minigene); assay: RT-PCR of tau exon 10 minigene SV10 1:1 co-transfected with splicing regulator cDNA plasmids in COS cells; type: cell-based, human; conditions: 1:1 co-transfection, FIG. 4
Procedure: Plasmid DNA was purified by cesium chloride banding (Sambrook et al., 1989). The plasmids obtained in Examples 1 and 2 were introduced into cells by the lipofection method (LT1, Panvera).
Plates (100 mm) that had reached ˜30% confluence were transfected with 10 μg of construct DNA or 5 μg of each plasmid for co-transfections. The medium was changed 16 h after transfection, without glycerol shock.
Total RNA was isolated 48 h post-transfection by the TRIzol method (Life Technologies). […]
The RT-PCR experiments were done twice with the polyA^+ RNAs and with total RNAs from three independent transfections, to ensure reproducibility. […] In FIGS. 1-4, the percent of the 10^+ isoform was calculated by scanning the bands from three independent transfections and measuring the areas under the curves (by the IPLab Gel program from Scanalytics).
RT-PCR was performed in a manner as described in Example 4 (using primer pair: INS1/INS3), except that-mammalian cells were analyzed which had been 1:1 co-transfected with tau exon 10 containing minigene constructs (denoted SV 10) and with plasmids containing cDNA of various plicing regulators. […]

Compound	controlled change of exon 10 inclusion of the tau gene via clk2 phosphorylation levels [1]	effect on tau exon 10 inclusion (10+/10- isoform ratio by RT-PCR) [2]
OC[C@H]1O[C@@H](n2cnc3cc(Cl)c(Cl)cc32)[C@H](O)[C@@H]1O [5,6-dichloro-1-b-D-ribofuranosylbenzimidazole]	changing the clk2 phosphorylation levels	–
C=C1[C@@H](O)[C@@H]2O[C@]3(CC[C@H](/C=C/[C@@H](C)[C@@H]4CC(C)=C[C@@]5(O[C@H](C[C@@](C)(O)C(=O)O)CC[C@H]5O)O4)O3)CC[C@H]2O[C@@H]1[C@@H](O)C[C@H](C)[C@H]1O[C@@]2(CCCCO2)CC[C@H]1C [okadaic acid]	changing the clk2 phosphorylation levels	–
ASF/SF2: serine/arginine-rich (SR) protein splicing regulator, expressed from cDNA under the CMV promoter	–	inhibited
